One assay deals with T1, KRAS G12C mutant (Homo sapiens, UniProt P01116, G12C).
T1 construct: 50 μM G12C K-Ras4B (1-169) protein and 1 mM BODIPY® FL GDP; His tag (N, cleaved yes); made in house; host or cells: E. coli BL21 (DE3)
The experiment in a line: Inhibition of SOS1-mediated nucleotide (GDP-GTP) exchange reaction of KRAS G12C mutant, BODIPY FL GDP fluorescence. The note with it: preincubated 25° C. 4 hours with 25 nM KRAS G12C bound with BODIPY FL GDP; SOS1 100 nM, GppNHp 1 μM, 30 minutes. It is filed as biochemical. The gist of the method:
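KRAS G12C (1-169) loaded with BODIPY FL GDP (25 nM) was preincubated with compound (5% DMSO) for 4 h at 25 °C. Exchange then ran 30 min with SOS1 (564-1049, 100 nM) and 1 µM GppNHp. IC50 came from the 485/520 nm fluorescence change, normalized to DMSO and no-GppNHp controls.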

Another assay addresses T2, G12C K-Ras4B (1-169) (Homo sapiens, UniProt P01116, G12C).
T2 construct: G12C K-Ras4B (1-169) protein, which was a KRAS G12C mutant; His tag (N, cleaved yes); made in house; host or cells: E. coli BL21 (DE3)
The experiment in a line: Binding to KRAS G12C mutant, compound binding rate by LC-MS. The note with it: final compound concentration 2 μM, 1 μM protein, 2 hours at 25° C. The method, boiled down: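 Covalent labelling at 2 μM final compound on a mix of 1 μM each wild-type and G12C K-Ras4B (1-169) (E. coli-expressed, tag removed) in 1×TBS, 0.1 mM TCEP, 2 h at 25° C., quenched with formic acid. Intact-protein ESI Q-TOF LC-MS; binding rate from adduct vs unbound protein signal, graded A–E in 20% bands.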

The subject of the next assay is NCI-H358 cells. The experiment in a line: Growth inhibition of KRAS-G12C mutant cell line NCI-H358 (CellTiter-Glo 2.0). The note with it: Homo sapiens, 72 h; NCI-H358, 3-day culture with compound. It is filed as cell-based. The method, then: KRAS-G12C mutant human lung cancer cell line NCI-H358 cells (ATCC, Cat #: CRL-5807) were suspended in RPMI1640 medium (manufactured by Fujifilm Wako Pure Chemical Corp.) containing 10% fetal bovine serum. The cell suspension was seeded at 500 cells/well into the wells of a 384-well flat-bottom microplate and cultured at 37° C. for 1 day in an incubator containing 5% CO2. The compound of the present invention was dissolved in DMSO and diluted with DMSO such that the concentration of the test compound was 500 times the final concentration. The solution of the test compound in DMSO was diluted with the medium used for suspending the cells, and the resultant was added to each well of the cell culture plate such that the final concentration of DMSO was 0.2%, followed by culture at 37° C. for another 3 days in an incubator containing 5% CO2.
Growth inhibition rate (%)=(C−T)/(C)×100 • T: the emission intensity in a well supplemented with the test compound. • C: the emission intensity in a well not supplemented with the test compound.
In general terms: Cellular ATP, detected with luciferase, serves as a proxy for viable cell number.

Experimental findings from patent publication US12479834B2, “Phenol compound or salt thereof” (TAIHO PHARMACEUTICAL CO., LTD., priority 2019, dated 2025) are described below.

One may read the IC50 as the point on the concentration scale where inhibition reaches its midpoint.

`C=CC(=O)N1CC(NC(=O)c2ccc(CNc3cc(C(C)(C)C)c(Cl)cc3O)o2)C1` [Example 1, N-(1-Acryloylazetidin-3-yl)-5-(((5-(tert-butyl)-4-chloro-2-hydroxyphenyl)amino)methyl)furan-2-carboxamide]: the IC50 was 326 nM against KRAS G12C mutant and 4110 nM with NCI-H358 cells. In addition, on G12C K-Ras4B (1-169), the “binding rate for G12C K-Ras4B (1-169)” value is listed as “A (80% or more)”.
As to `C=CC(=O)N1CC(N(C)C(=O)c2ccc(CNc3cc(C(C)(C)C)c(Cl)cc3O)o2)C1` [Example 4, N-(1-Acryloylazetidin-3-yl)-5-(((5-(tert-butyl)-4-chloro-2-hydroxyphenyl)amino)methyl)-N-methylfuran-2-carboxamide], the IC50 on KRAS G12C mutant came to 11 nM; with NCI-H358 cells, 1170 nM. Also, the “binding rate for G12C K-Ras4B (1-169)” value at G12C K-Ras4B (1-169) was “A (80% or more)”.
Take `C=CC(=O)N1CC(N(CC)C(=O)c2ccc(CNc3cc(C(C)(C)C)c(Cl)cc3O)o2)C1` [Example 5, N-(1-Acryloylazetidin-3-yl)-5-(((5-(tert-butyl)-4-chloro-2-hydroxyphenyl)amino)methyl)-N-ethylfuran-2-carboxamide]: the IC50 amounted to 12 nM on KRAS G12C mutant and 699 nM in the assay with NCI-H358 cells. Also, the “binding rate for G12C K-Ras4B (1-169)” value on G12C K-Ras4B (1-169) is “A (80% or more)”.
In the case of `C=CC(=O)N1CC(NC(=O)c2cnc(CNc3cc(C(C)(C)C)c(Cl)cc3O)n2C)C1` [Example 18, N-(1-Acryloylazetidin-3-yl)-2-(((5-(tert-butyl)-4-chloro-2-hydroxyphenyl)amino)methyl)-1-methyl-1H-imidazole-5-carboxamide], the figures for the IC50 at KRAS G12C mutant and in the assay with NCI-H358 cells were 11 nM and 562 nM, respectively. For the same compound, on G12C K-Ras4B (1-169), the “binding rate for G12C K-Ras4B (1-169)” value is “A (80% or more)”.
The matching figures for `C=CC(=O)N1CC(NC(=O)c2sc(CNc3cc(C(C)(C)C)c(Cl)cc3O)nc2C)C1` [Example 20, N-(1-Acryloylazetidin-3-yl)-2-(((5-(tert-butyl)-4-chloro-2-hydroxyphenyl)amino)methyl)-4-methylthiazole-5-carboxamide]: 13 nM, 658 nM and “A (80% or more)”.
In the same order, the values of `C=CC(=O)N1CC(N(C)C(=O)c2nc(CNc3cc(C(C)(C)C)c(Cl)cc3O)cs2)C1` [Example 29, N-(1-Acryloylazetidin-3-yl)-4-(((5-(tert-butyl)-4-chloro-2-hydroxyphenyl)amino)methyl)-N-methylthiazole-2-carboxamide] are 12 nM, 1110 nM and “A (80% or more)”.
Consider `C=CC(=O)N1CC(NC(=O)c2cnc(CNc3cc(C(C)(C)C)c(Cl)cc3O)n2CCOC)C1` [Example 37, N-(1-Acryloylazetidin-3-yl)-2-(((5-(tert-butyl)-4-chloro-2-hydroxyphenyl)amino)methyl)-1-(2-methoxyethyl)-1H-imidazole-5-carboxamide], for which the IC50 against KRAS G12C mutant stood at 13 nM; in the assay with NCI-H358 cells it was 321 nM. Moreover, the “binding rate for G12C K-Ras4B (1-169)” value at G12C K-Ras4B (1-169) is listed as “A (80% or more)”.
With `C=CC(=O)N1CC(NC(=O)c2c(C)nc(CNc3nc([Si](C)(C)C)c(Cl)cc3O)n2C)C1` [Example 85, N-(1-Acryloylazetidin-3-yl)-2-(((5-chloro-3-hydroxy-6-(trimethylsilyl)pyridin-2-yl)amino)methyl)-1,4-dimethyl-1H-imidazole-5-carboxamide], inhibition against KRAS G12C mutant was half-maximal at 39 nM (IC50). Moreover, the “binding rate for G12C K-Ras4B (1-169)” value at G12C K-Ras4B (1-169) was “C (40% or more and less than 60%)”.
The compound `CN(C)C/C=C/C(=O)N1CC(NC(=O)c2cnc(CNc3cc(C(C)(C)C)c(Cl)cc3O)s2)C1` [Example 86, (E)-2-(((5-(tert-Butyl)-4-chloro-2-hydroxyphenyl)amino)methyl)-N-(1-(4-(dimethylamino)but-2-enoyl)azetidin-3-yl)thiazole-5-carboxamide] had an IC50 against KRAS G12C mutant of 701 nM. For the same compound, the “binding rate for G12C K-Ras4B (1-169)” value at G12C K-Ras4B (1-169) is “B (60% or more and less than 80%)”.
Consider `CN(C)C/C=C/C(=O)N1CC(N(C)C(=O)c2ccc(CNc3cc(C(C)(C)C)c(Cl)cc3O)o2)C1` [Example 87, (E)-5-(((5-(tert-Butyl)-4-chloro-2-hydroxyphenyl)amino)methyl)-N-(1-(4-(dimethylamino)but-2-enoyl)azetidin-3-yl)-N-methylfuran-2-carboxamide], for which, on KRAS G12C mutant, half-maximal inhibition (IC50) required 193 nM. The “binding rate for G12C K-Ras4B (1-169)” value at G12C K-Ras4B (1-169) is “A (80% or more)”.
The compound `Cc1nc(CNc2cc(C(C)(C)C)c(Cl)cc2O)sc1C(=O)NC1CN(C(=O)/C=C/CN(C)C)C1` [Example 88, (E)-2-(((5-(tert-Butyl)-4-chloro-2-hydroxyphenyl)amino)methyl)-N-(1-(4-(dimethylamino)but-2-enoyl)azetidin-3-yl)-4-methylthiazole-5-carboxamide] registered an IC50 at KRAS G12C mutant of 109 nM. For the same compound, the “binding rate for G12C K-Ras4B (1-169)” value on G12C K-Ras4B (1-169) was “C (40% or more and less than 60%)”.
On to `CN(C)C/C=C/C(=O)N1CC(NC(=O)c2cnc(CNc3cc(C(C)(C)C)c(Cl)cc3O)n2C)C1` [Example 89, (E)-2-(((5-(tert-Butyl)-4-chloro-2-hydroxyphenyl)amino)methyl)-N-(1-(4-(dimethylamino)but-2-enoyl)azetidin-3-yl)-1-methyl-1H-imidazole-5-carboxamide], for which 61 nM corresponded to half-maximal inhibition on KRAS G12C mutant (IC50). The “binding rate for G12C K-Ras4B (1-169)” value on G12C K-Ras4B (1-169) is “A (80% or more)”.
Take `C=CC(=O)N1CC(NC(=O)c2cnc(CCc3cc(C(C)(C)C)c(Cl)cc3O)n2C)C1` [Example 90, N-(1-Acryloylazetidin-3-yl)-2-(5-(tert-butyl)-4-chloro-2-hydroxyphenethyl)-1-methyl-1H-imidazole-5-carboxamide]: the IC50 on KRAS G12C mutant came to 549 nM. In addition, the “binding rate for G12C K-Ras4B (1-169)” value on G12C K-Ras4B (1-169) was “D (20% or more and less than 40%)”.
Compound `C=CC(=O)N1CC(NC(=O)c2c(C)nc(C(O)c3cc(C(C)(C)C)c(Cl)cc3O)n2C)C1` (centres unmarked) [Example 91, N-(1-Acryloylazetidin-3-yl)-2-((5-(tert-butyl)-4-chloro-2-hydroxyphenyl) (hydroxy)methyl)-1,4-dimethyl-1H-imidazole-5-carboxamide] had an IC50 against KRAS G12C mutant of 128 nM. Also, on G12C K-Ras4B (1-169), the “binding rate for G12C K-Ras4B (1-169)” value is “D (20% or more and less than 40%)”.
Compound `C=CC(=O)N1CC(NC(=O)c2c(C)nc(C(O)c3cc(C(C)(C)C)c(F)cc3O)n2C)C1` (centres unmarked) [Example 93, N-(1-Acryloylazetidin-3-yl)-2-((5-(tert-butyl)-4-fluoro-2-hydroxyphenyl) (hydroxy)methyl)-1,4-dimethyl-1H-imidazole-5-carboxamide] showed an IC50 against KRAS G12C mutant of 500 nM. For the same compound, the “binding rate for G12C K-Ras4B (1-169)” value on G12C K-Ras4B (1-169) is “E (less than 20%)”.
`C=CC(=O)N1CC(NC(=O)c2c(C)nc(Cc3cc(C(C)(C)C)c(F)cc3O)n2C)C1` [Example 94, N-(1-Acryloylazetidin-3-yl)-2-(5-(tert-butyl)-4-fluoro-2-hydroxybenzyl)-1,4-dimethyl-1H-imidazole-5-carboxamide] gave an IC50 against KRAS G12C mutant of 170 nM. In addition, at G12C K-Ras4B (1-169), the “binding rate for G12C K-Ras4B (1-169)” value was “C (40% or more and less than 60%)”.
In turn, `C=CC(=O)N1CC(NC(=O)c2sc(Cc3cc(C(C)(C)C)c(Cl)cc3O)nc2C)C1` [Example 95, N-(1-Acryloylazetidin-3-yl)-2-(5-(tert-butyl)-4-chloro-2-hydroxybenzyl)-4-methylthiazole-5-carboxamide] showed an IC50 on KRAS G12C mutant of 467 nM. In addition, the “binding rate for G12C K-Ras4B (1-169)” value on G12C K-Ras4B (1-169) was “C (40% or more and less than 60%)”.
Take `C=CC(=O)N1CC(NC(=O)c2cnc(C(O)c3cc(C(C)(C)C)c(Cl)cc3O)n2C)C1` (centres unmarked) [Example 98, N-(1-Acryloylazetidin-3-yl)-2-((5-(tert-butyl)-4-chloro-2-hydroxyphenyl) (hydroxy)methyl)-1-methyl-1H-imidazole-5-carboxamide]: on KRAS G12C mutant, the IC50 is 205 nM. The “binding rate for G12C K-Ras4B (1-169)” value on G12C K-Ras4B (1-169) was “B (60% or more and less than 80%)”.
At KRAS G12C mutant, `C=CC(=O)N1CC(NC(=O)c2ccc(CNc3cc(C(C)(C)C)c(Cl)cc3OC)o2)C1` [Reference Example1, N-(1-Acryloylazetidin-3-yl)-5-(((5-(tert-butyl)-4-chloro-2-methoxyphenyl)amino)methyl)furan-2-carboxamide, reference compound] came in with an IC50 of more than 10000 nM. Moreover, the “binding rate for G12C K-Ras4B (1-169)” value on G12C K-Ras4B (1-169) is “E (less than 20%)”.
In turn, `C=CC(=O)N1CC(NC(=O)c2ccc(CNc3ccc(Cl)c(C(C)(C)C)c3)o2)C1` [Reference Example2, N-(1-Acryloylazetidin-3-yl)-5-(((3-(tert-butyl)-4-chlorophenyl)amino)methyl)furan-2-carboxamide, reference compound] had an IC50 on KRAS G12C mutant of more than 10000 nM. Further, the “binding rate for G12C K-Ras4B (1-169)” value at G12C K-Ras4B (1-169) is recorded as “E (less than 20%)”.
